One series addresses T1, MR (Homo sapiens, UniProt P08235).
T1 construct: expressed in transfected cells; host or cells: recombinant HeLa cell lines
T1 sequence (P08235 1-984): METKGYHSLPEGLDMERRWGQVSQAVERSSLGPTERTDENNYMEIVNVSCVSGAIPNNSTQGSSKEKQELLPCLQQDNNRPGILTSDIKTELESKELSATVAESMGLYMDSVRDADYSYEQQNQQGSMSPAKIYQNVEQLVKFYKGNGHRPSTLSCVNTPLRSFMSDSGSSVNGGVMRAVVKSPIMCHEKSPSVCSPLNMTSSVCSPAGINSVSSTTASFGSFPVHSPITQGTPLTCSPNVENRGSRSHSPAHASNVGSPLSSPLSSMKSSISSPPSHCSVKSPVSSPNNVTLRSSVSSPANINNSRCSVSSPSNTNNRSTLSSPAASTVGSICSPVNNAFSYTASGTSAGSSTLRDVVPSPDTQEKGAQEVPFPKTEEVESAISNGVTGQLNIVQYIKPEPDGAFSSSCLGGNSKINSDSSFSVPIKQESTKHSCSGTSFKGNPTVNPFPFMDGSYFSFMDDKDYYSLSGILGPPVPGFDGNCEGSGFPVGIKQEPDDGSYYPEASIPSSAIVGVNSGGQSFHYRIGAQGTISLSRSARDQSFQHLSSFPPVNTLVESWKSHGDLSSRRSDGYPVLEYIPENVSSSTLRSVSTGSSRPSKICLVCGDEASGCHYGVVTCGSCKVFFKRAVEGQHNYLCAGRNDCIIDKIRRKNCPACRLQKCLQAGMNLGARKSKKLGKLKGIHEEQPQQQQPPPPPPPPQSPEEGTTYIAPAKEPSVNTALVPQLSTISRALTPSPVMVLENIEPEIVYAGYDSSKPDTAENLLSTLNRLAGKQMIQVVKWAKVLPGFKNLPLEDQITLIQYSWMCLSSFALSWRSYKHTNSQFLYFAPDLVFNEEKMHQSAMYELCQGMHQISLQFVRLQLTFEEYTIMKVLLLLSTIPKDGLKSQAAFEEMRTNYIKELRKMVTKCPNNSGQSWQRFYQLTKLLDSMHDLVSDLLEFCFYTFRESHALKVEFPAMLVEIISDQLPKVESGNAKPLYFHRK
Kind of series: Nuclear receptor profiling, luciferase reporter in recombinant HeLa cells. Format: cell-based. The settings on record: IA = Inactive. Here is the method:
(§1) Nuclear receptor profiling, excluding retinoid X receptor (RXR), was previously described in detail.[24] Briefly, profiling was done using the Steady‐Glo luciferase assay kit (Promega, E2550) in recombinant HeLa cell lines expressing the respective receptors. Compounds were treated at nine doses (n = 2/dose) from 0.00015–10 µM. Data were normalized to minimum and maximum controls and 4‐parameter logistic regression fitting (Figure S2) was performed in XLfit software (IDBS).

The next series concerns the target T2, LXRβ (Homo sapiens, UniProt P55055).
T2 construct: expressed in transfected cells; host or cells: recombinant HeLa cell lines
T2 sequence (P55055 1-460): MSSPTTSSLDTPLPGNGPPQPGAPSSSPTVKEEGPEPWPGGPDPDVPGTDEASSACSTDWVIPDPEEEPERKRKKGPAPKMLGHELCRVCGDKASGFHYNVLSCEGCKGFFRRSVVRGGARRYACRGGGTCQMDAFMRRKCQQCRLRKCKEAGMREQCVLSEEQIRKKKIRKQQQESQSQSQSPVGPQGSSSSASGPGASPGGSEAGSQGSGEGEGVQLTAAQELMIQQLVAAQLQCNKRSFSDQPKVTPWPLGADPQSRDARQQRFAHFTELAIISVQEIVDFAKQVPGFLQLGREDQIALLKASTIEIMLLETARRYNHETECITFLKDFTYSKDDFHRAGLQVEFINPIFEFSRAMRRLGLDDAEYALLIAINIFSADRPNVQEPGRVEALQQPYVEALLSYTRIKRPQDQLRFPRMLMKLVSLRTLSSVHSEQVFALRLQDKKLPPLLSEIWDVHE
Described as above. The series is classed as cell-based. Here is the method: as §1

The next series has as its target T3, CYP19 (Homo sapiens, UniProt P11511).
T3 construct: purchased Corning (Woburn, MA)
T3 sequence (P11511 1-503): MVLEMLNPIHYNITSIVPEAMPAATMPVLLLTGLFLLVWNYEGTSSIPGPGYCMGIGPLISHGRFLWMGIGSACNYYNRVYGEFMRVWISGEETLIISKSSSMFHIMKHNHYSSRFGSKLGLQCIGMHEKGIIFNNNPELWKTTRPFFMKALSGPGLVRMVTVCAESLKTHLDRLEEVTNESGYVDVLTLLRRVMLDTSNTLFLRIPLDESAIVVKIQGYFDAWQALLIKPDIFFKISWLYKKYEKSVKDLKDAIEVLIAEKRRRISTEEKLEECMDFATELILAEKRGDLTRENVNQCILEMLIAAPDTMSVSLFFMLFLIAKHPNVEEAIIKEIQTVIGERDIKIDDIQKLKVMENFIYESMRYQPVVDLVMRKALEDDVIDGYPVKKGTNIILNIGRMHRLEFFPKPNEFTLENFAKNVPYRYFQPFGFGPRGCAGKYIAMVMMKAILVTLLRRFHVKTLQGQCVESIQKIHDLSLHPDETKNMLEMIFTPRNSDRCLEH
Kind of series: Qualitative CYP19 screening, CYP19 Supersomes, HPLC-MS/MS. The series is classed as biochemical. The method, then:
(§2) CYP450 inhibition assays (excluding CYP19 and 1 µM CYP2C8) were performed as previously described.[31] Substrate metabolite formation was measured by HPLC‐MS/MS. Percent of control activity was determined by comparing metabolite peak areas with and without test compound. Qualitative screening of CYP2C8 (1 µM) and CYP19 is described in detail in Supporting Information. Reference compound IC50 values were determined by non‐linear regression analysis using Hill equation curve fitting.
In vitro CYP19 screening was carried out in triplicate using a modified HPLC-MS/MS protocol based on methodology provided by Admescope Ltd. DMSO stock solutions of test compounds, positive control liarozole, androstenedione substrate and solvent control were diluted with 100 mM phosphate buffer (pH 7.4) such that DMSO content in final assay conditions was 1% in a volume of 200 µL. Briefly, to a microfuge tube was added 1 µM substrate, 1 mM NAPDH, and 0.1-1 µM test compounds (final concentrations after enzyme addition) in phosphate buffer before pre-incubating for 2 min at 37 °C. CYP19/CYP450 reductase Supersomes™ enzyme (50 µL, 1.5 pmol/mL) was added to each tube, gently mixed, then incubated at 37 °C for 30 min. The reaction was quenched with an equal volume of acetonitrile containing cortisone internal standard (100 nM). […]

The next series deals with T4, RARβ (Homo sapiens, UniProt P10826).
T4 construct: expressed in transfected cells; host or cells: recombinant HeLa cell lines
T4 sequence (P10826 1-455): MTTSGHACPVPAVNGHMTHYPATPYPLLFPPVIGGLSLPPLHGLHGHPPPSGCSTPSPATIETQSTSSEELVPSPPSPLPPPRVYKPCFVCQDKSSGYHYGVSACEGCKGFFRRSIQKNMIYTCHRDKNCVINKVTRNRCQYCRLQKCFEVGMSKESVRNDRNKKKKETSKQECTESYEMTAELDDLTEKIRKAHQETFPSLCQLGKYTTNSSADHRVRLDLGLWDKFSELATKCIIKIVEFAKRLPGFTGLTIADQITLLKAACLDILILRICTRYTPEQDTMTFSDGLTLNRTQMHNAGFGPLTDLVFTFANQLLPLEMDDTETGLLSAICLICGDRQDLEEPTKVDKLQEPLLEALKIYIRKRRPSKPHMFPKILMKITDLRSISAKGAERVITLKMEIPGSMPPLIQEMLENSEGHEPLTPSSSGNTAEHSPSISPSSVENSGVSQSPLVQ
The series can be described thus: Nuclear receptor profiling, luciferase reporter in recombinant HeLa cells. Format: cell-based. The method, then:
as §1

The next series deals with T5, RARγ (Homo sapiens, UniProt P13631).
T5 construct: expressed in transfected cells; host or cells: recombinant HeLa cell lines
T5 sequence (P13631 1-454): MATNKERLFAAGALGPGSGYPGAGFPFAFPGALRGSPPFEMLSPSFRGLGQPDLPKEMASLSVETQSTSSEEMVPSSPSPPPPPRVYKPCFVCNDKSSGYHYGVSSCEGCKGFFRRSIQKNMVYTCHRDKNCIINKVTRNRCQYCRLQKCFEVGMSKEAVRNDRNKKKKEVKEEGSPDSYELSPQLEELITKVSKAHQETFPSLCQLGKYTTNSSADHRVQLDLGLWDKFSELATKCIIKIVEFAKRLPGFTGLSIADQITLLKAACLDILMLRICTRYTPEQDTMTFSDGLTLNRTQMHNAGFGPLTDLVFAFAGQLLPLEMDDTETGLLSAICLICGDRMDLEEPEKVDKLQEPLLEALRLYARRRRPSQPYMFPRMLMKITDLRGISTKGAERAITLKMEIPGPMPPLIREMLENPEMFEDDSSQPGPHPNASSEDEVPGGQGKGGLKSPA
Described as above. The series is classed as cell-based. To be noted: IA = Inactive. The method, then:
as §1

The target of the next series is T6, RARα (Homo sapiens, UniProt P10276).
T6 construct: expressed in transfected cells; host or cells: recombinant HeLa cell lines
T6 sequence (P10276 1-462): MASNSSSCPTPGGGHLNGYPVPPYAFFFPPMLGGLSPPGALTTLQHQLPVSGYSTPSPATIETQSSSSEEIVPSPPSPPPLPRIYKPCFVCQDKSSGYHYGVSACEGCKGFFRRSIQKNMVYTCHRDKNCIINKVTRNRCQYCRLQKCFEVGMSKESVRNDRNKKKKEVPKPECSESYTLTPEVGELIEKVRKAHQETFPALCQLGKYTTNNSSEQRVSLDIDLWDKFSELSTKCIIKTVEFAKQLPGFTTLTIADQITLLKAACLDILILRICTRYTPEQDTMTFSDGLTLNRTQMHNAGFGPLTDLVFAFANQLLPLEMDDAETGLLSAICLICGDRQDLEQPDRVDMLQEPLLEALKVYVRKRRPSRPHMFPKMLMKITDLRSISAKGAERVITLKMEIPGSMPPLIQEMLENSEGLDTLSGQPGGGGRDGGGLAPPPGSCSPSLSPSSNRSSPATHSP
Described as above. Format: cell-based. Here is the method: as §1

For a further series, the target named is T7, CYP2B6 (Homo sapiens, UniProt P20813).
T7 construct: from tissue; host or cells: human liver microsomes (per the earlier reading and the cited method)
T7 sequence (P20813 1-491): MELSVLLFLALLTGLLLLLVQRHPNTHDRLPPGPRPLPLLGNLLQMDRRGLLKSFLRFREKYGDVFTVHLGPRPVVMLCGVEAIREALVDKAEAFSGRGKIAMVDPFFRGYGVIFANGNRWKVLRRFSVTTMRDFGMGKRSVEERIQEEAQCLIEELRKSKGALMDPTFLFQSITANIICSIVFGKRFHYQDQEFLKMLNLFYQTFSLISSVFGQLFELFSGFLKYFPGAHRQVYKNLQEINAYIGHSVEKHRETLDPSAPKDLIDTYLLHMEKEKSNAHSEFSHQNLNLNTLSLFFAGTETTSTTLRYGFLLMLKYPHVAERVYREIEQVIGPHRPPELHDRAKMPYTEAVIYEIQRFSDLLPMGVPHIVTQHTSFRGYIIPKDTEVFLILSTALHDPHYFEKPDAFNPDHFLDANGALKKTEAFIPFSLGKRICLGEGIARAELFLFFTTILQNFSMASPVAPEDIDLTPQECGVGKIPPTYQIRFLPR
The series can be described thus: CYP450 inhibition assay, human liver microsomes. The series is classed as biochemical. The method, then:
as §2

Another series addresses T8, CYP2C19 (Homo sapiens, UniProt P33261).
T8 construct: from tissue; host or cells: human liver microsomes (per the earlier reading and the cited method)
The series can be described thus: CYP450 inhibition assay, human liver microsomes. Format: biochemical. To be noted: substrate omeprazole.

T8 sequence (P33261 whole entry): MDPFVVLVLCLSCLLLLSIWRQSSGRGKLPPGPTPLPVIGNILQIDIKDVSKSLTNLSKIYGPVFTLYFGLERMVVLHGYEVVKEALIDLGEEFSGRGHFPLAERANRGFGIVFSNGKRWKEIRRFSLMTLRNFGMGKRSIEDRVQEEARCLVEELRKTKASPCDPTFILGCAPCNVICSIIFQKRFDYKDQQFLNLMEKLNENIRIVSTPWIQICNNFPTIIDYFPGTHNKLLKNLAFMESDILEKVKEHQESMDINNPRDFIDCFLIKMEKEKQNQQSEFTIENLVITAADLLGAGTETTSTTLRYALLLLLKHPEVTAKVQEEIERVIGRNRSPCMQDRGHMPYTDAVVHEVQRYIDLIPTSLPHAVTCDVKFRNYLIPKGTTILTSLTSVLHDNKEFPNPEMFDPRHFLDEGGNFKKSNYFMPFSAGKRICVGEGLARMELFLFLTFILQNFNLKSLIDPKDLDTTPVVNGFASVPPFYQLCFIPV

Regarding `C[C@]12C[C@H](O)[C@H]3[C@@H](CCC4=CC(=O)CC[C@@]43C)[C@@H]1CC[C@@H]2C(=O)CO` [Corticosterone], on MR, the EC50 was 0.4 nM. `O=C(O)Cc1cccc(OCCCN(Cc2cccc(C(F)(F)F)c2Cl)CC(c2ccccc2)c2ccccc2)c1` [GW3965]: the EC50 at LXRβ was determined as 200 nM. For the compound `Clc1cccc(C(c2ccc3[nH]cnc3c2)n2ccnc2)c1` (stereo not shown) [Liarozole], at CYP19 (0.1 µM compound, substrate androstenedione, calculated from decrease in metabolite formation, read-out: % Inhibition (reduction of CYP19 activity)), the inhibition at 0.1 µM is 61.1%. The same compound registered an inhibition at 1 µM at CYP19 (reference concentration 1000 nM, androstenedione 1000 nM, 30 min, 37°C) of 83.8%.

In the case of `CC1(C)CCSc2ccc(C#Cc3ccc(C(=O)O)cn3)cc21` [Tazarotenic acid], the EC50 amounted to 3.2 nM at RARβ, 25 nM at RARγ and 32 nM on RARα.

Regarding `COC(=O)[C@H](c1ccccc1Cl)N1CCc2sccc2C1` [clopidogrel], half-maximal inhibition against CYP2B6 (IC50) was put at 370 nM. In addition, on CYP2B6 (substrate bupropion), the “nH (hill coefficient)” value is 1.3.

With `CCN(CC)CC#CCOC(=O)C(O)(c1ccccc1)C1CCCCC1` (stereo not shown) [oxybutynin], the “nH (hill coefficient)” value on CYP2C19 is given as 0.8.

These data come from PMC9060145 (Skin Health and Disease, 2021).
